Laboratory results published in PubChem BioAssay (NCI).
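Growth conditions: 96-well plates. Treatment: test compound, 48 hours, 5 concentrations. Analysis: linear interpolation between bracketing concentrations; unreached endpoints set to highest concentration. TGI denotes the concentration required for complete inhibition of growth.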

These compounds were tested on 786-0 renal (assay: NCI-60 cell line screen, 48 h).
Compound `O=C1CC(c2ccccc2)S(=O)c2ccccc2N1` (centres undefined) has a TGI greater than 100 µM. `CC1(C)CC(=O)C2=C(C1)OC1(CC2c2ccc(Cl)cc2)CC(c2ccc(Cl)cc2)C2=C(CC(C)(C)CC2=O)O1` (centres undefined) showed a TGI of 35.9 µM. `O=C(O)c1ccc(N/C(=C(/C(Cl)=C(Cl)Cl)[N+](=O)[O-])n2nnc3ccccc32)cc1` showed a TGI greater than 100 µM. For `O=c1c2ccccc2nc(-c2ccccc2)n1NC(=S)Nc1cccc(Cl)c1`, the TGI was greater than 100 µM. `CCn1c2ccccc2c2cc(Nc3cc(C)[nH]c(=O)n3)ccc21` gave a TGI greater than 100 µM. `C(#Cc1ccccc1)SC1=C(c2ccccc2)S/C(=C(\SC#Cc2ccccc2)c2ccccc2)S1` was tested, and the TGI was greater than 100 µM. Work on `COC(=O)c1cc(/C=C\c2cc(OC)ccc2OC)ccc1OC` yielded a TGI greater than 100 µM. For `CCOC(=O)C(C(=O)COC(C)(C)C)[C@@H]1C=C[C@H](OC(C)=O)C1` (some centres undefined), the TGI was greater than 100 µM. In the case of `CCOC(=O)CC(NC(=O)c1ccc(N=NN(C)C)cc1)C(=O)OCC` (centres undefined), the TGI was greater than 100 µM. For `CN(C)CN(C)c1nc(N(C)C)nc(N(C)CN(C)C)n1`, the TGI was greater than 100 µM. With `O=C(Cc1ccccc1)NN1C(=O)/C(=C\c2ccccc2O)SC1=Nc1ccccc1` the TGI was greater than 100 µM. `COc1ccc2c(c1)CCC/C2=N\NS(=O)(=O)c1c(C)cc(C)cc1C` was tested, and the TGI was 37.8 µM. `CSCCCNC(=O)[C@H](CSC)NC(=O)c1csc(CCNC(=O)[C@@H](NSc2ccccc2[N+](=O)[O-])C(C)O)n1` (some centres undefined) gave a TGI greater than 100 µM. In the case of `CN(C)/C=C/C=C(/C=N/S(=O)(=O)C(F)(F)F)C1C=CN(S(=O)(=O)C(F)(F)F)C=C1`, the TGI was greater than 100 µM. Compound `Cc1ccc(S(=O)(=O)Nn2c(O)c(C#N)c(-c3ccc([N+](=O)[O-])cc3)c(C#N)c2=O)cc1` has a TGI greater than 100 µM. `CC(C)[Si](OCC1CC(C#N)OC(C)(C)O1)(C(C)C)C(C)C` (centres undefined) was tested, and the TGI was 35.2 µM. In the case of `CC(=O)Nc1ccc(-c2nnc(SCC(=O)Nc3ccc(Cl)cc3)o2)cc1`, the TGI was 19.6 µM. With `Cc1ccccc1NC(=O)Cc1csc(N=Nc2c(O)[nH]c3ccccc23)n1` the TGI was greater than 100 µM. For `FC(F)(F)c1ccc2nc(Sc3ccc4ccccc4c3)cnc2c1`, the TGI was greater than 100 µM. Work on `COc1ccc2c([nH]c3c(O)c(-c4c(C)cc5c([nH]c6c(CC=C(C)C)c(OC)ccc65)c4O)c(C)cc32)c1CC=C(C)C` yielded a TGI greater than 100 µM. With `COc1ccc(-n2cnc3c(NC(Cc4ccccc4)C(=O)O)ncnc32)cc1` (centres undefined) the TGI was greater than 100 µM. Work on `CC(=O)OCC1OC(n2c(-c3ccccc3)c(N=Nc3ccc(C)cc3)c(C)c(C#N)c2=S)C(OC(C)=O)C(OC(C)=O)C1OC(C)=O` (centres undefined) yielded a TGI of 12.5 µM. In the case of `CN1CCC2(CC1)C(=NC1CCCCC1)NC(=O)N2c1ccccc1`, the TGI was greater than 100 µM. `CC(C)=NOC(=O)Nc1cccc2c1OCO2` gave a TGI greater than 100 µM. `Cc1ccc(/C=C2/N=C(N/N=C\c3ccccc3)NC2=O)cc1` gave a TGI of 55.6 µM. For `O=C(Nc1ccc(Cl)cc1)c1cc(S(=O)(=O)Nc2n[nH]c(=O)n2-c2ccccc2)c(S)cc1Cl`, the TGI was greater than 100 µM. `Cc1csc(-n2c(C)nc3cc(Cl)ccc3c2=O)n1` showed a TGI greater than 100 µM.

What follows are compounds tested on A498 renal (assay: NCI-60 cell line screen, 48 h).
`CC1(C)CC(=O)C2=C(C1)OC1(CC2c2ccc(Cl)cc2)CC(c2ccc(Cl)cc2)C2=C(CC(C)(C)CC2=O)O1` (centres undefined) was tested, and the TGI was 31 µM. Work on `O=C(O)c1ccc(N/C(=C(/C(Cl)=C(Cl)Cl)[N+](=O)[O-])n2nnc3ccccc32)cc1` yielded a TGI greater than 100 µM. `O=c1c2ccccc2nc(-c2ccccc2)n1NC(=S)Nc1cccc(Cl)c1` showed a TGI greater than 100 µM. For `CCn1c2ccccc2c2cc(Nc3cc(C)[nH]c(=O)n3)ccc21`, the TGI was greater than 100 µM. Work on `COC(=O)c1cc(/C=C\c2cc(OC)ccc2OC)ccc1OC` yielded a TGI greater than 100 µM. Work on `CCOC(=O)C(C(=O)COC(C)(C)C)[C@@H]1C=C[C@H](OC(C)=O)C1` (some centres undefined) yielded a TGI greater than 100 µM. In the case of `CCOC(=O)CC(NC(=O)c1ccc(N=NN(C)C)cc1)C(=O)OCC` (centres undefined), the TGI was greater than 100 µM. For `CN(C)CN(C)c1nc(N(C)C)nc(N(C)CN(C)C)n1`, the TGI was greater than 100 µM. Work on `O=C(Cc1ccccc1)NN1C(=O)/C(=C\c2ccccc2O)SC1=Nc1ccccc1` yielded a TGI greater than 100 µM. `COc1ccc2c(c1)CCC/C2=N\NS(=O)(=O)c1c(C)cc(C)cc1C` gave a TGI of 77 µM. With `CSCCCNC(=O)[C@H](CSC)NC(=O)c1csc(CCNC(=O)[C@@H](NSc2ccccc2[N+](=O)[O-])C(C)O)n1` (some centres undefined) the TGI was greater than 100 µM. Compound `CN(C)/C=C/C=C(/C=N/S(=O)(=O)C(F)(F)F)C1C=CN(S(=O)(=O)C(F)(F)F)C=C1` has a TGI of 88.8 µM. With `Cc1ccc(S(=O)(=O)Nn2c(O)c(C#N)c(-c3ccc([N+](=O)[O-])cc3)c(C#N)c2=O)cc1` the TGI was greater than 100 µM. With `CC(C)[Si](OCC1CC(C#N)OC(C)(C)O1)(C(C)C)C(C)C` (centres undefined) the TGI was 19.1 µM. With `CC(=O)Nc1ccc(-c2nnc(SCC(=O)Nc3ccc(Cl)cc3)o2)cc1` the TGI was 31.7 µM. `Cc1ccccc1NC(=O)Cc1csc(N=Nc2c(O)[nH]c3ccccc23)n1` gave a TGI greater than 100 µM. With `FC(F)(F)c1ccc2nc(Sc3ccc4ccccc4c3)cnc2c1` the TGI was greater than 100 µM. For `COc1ccc2c([nH]c3c(O)c(-c4c(C)cc5c([nH]c6c(CC=C(C)C)c(OC)ccc65)c4O)c(C)cc32)c1CC=C(C)C`, the TGI was greater than 100 µM. Compound `COc1ccc(-n2cnc3c(NC(Cc4ccccc4)C(=O)O)ncnc32)cc1` (centres undefined) has a TGI greater than 100 µM. `CC(=O)OCC1OC(n2c(-c3ccccc3)c(N=Nc3ccc(C)cc3)c(C)c(C#N)c2=S)C(OC(C)=O)C(OC(C)=O)C1OC(C)=O` (centres undefined) gave a TGI of 18.4 µM. `CN1CCC2(CC1)C(=NC1CCCCC1)NC(=O)N2c1ccccc1` gave a TGI greater than 100 µM. `CC(C)=NOC(=O)Nc1cccc2c1OCO2` showed a TGI greater than 100 µM. `O=C(Nc1ccc(Cl)cc1)c1cc(S(=O)(=O)Nc2n[nH]c(=O)n2-c2ccccc2)c(S)cc1Cl` gave a TGI greater than 100 µM. For `Cc1csc(-n2c(C)nc3cc(Cl)ccc3c2=O)n1`, the TGI was greater than 100 µM.

What follows are compounds tested on A549 NSCLC (assay: NCI-60 cell line screen, 48 h).
Work on `O=C1CC(c2ccccc2)S(=O)c2ccccc2N1` (centres undefined) yielded a TGI greater than 100 µM. Compound `CC1(C)CC(=O)C2=C(C1)OC1(CC2c2ccc(Cl)cc2)CC(c2ccc(Cl)cc2)C2=C(CC(C)(C)CC2=O)O1` (centres undefined) has a TGI of 30.9 µM. With `O=C(O)c1ccc(N/C(=C(/C(Cl)=C(Cl)Cl)[N+](=O)[O-])n2nnc3ccccc32)cc1` the TGI was greater than 100 µM.
